Test results taken from patent US12590100B2, “Tetrahydro-spiroindoline-pyrrolopyrrole-triones inhibitors of the NRF2-β-TrCP interaction for use in the treatment of fatty liver disease” (Universidad Autonoma De Madrid, priority 2021, dated 2026).
Entries after “also recorded” stand apart in the source; their conditions may differ.

Legend:
cell viability = assay: MTT assay of cell viability/toxicity; assay type: cell-based; settings: all doses used
β-TrCP1 and β-TrCP2 = assay: NRF2/HO-1 induction after lentiviral silencing of β-TrCP1/2 in Keap1−/− MEFs; assay type: cell-based, mouse
Protocol: In vitro kinase assay and in vitro ubiquitination. For the recognition and degradation of NRF2 by βTrCP, the serines 335, 338, 342 and 347 located at the Neh6 domain of NRF2 need to be previously phosphorylated by the kinase GSK-3β (FIG. 1). Therefore, to obtain the phosphorylated substrate, 20 ng recombinant NRF2-DETGE was used together with 0.5 μg of recombinant GSK-3β incubated at 30° C. for 60 min. The result was analyzed by western blot. After confirming the existence of phosphorylation in the residues of interest, an in vitro ubiquitination assay was carried out using the recombinant proteins that make up the E3 ubiquitin ligase complex. The ubiquitination reaction was carried out using: ATP (2 mM), […], SCF-βTrCP (450 nM), and non-phosphorylated or phosphorylated NRF2 (20 ng), in a specific ubiquitination buffer (30 mM Tris pH 7.6, 5 mM MgCl2, 2 mM dithiothreitol, 100 mM NaCl). Before the ubiquitination reactions, the E1, Cdc34b, and ubiquitin components were incubated together for 2 min to allow the E2 thioester bond to form. The reactions were incubated for 1 hour at 25° C. in the presence or absence of PHAR (3 μM) in order to determine whether or not PHAR inhibits ubiquitination by βTrCP. […] The PI3K/AKT signaling pathway is inhibited, and therefore GSK-3β is activated with the PI3K inhibitor, LY294002. As a result, NRF2 is phosphorylated by GSK-3β and marked for degradation by means of interaction with β-TrCP. Therefore, if PHAR is capable of inhibiting βTrCP-NRF2 interaction, the NRF2 levels will remain stable independently of the activation and phosphorylation by GSK-3β. The obtained result corroborates this. • 3. Using lentiviral silencing of the two isoforms described for β-TrCP (β-TrCP1 and β-TrCP2) in MEFs originating from Keap1 knockout mice (Keap′1−/−).
FIG. 6. PHAR increases NRF2 protein levels in a β-TrCP-dependent manner. A) In vitro phosphorylation of recombinant NRF2-DETGE by recombinant GSK-3β. Phosphorylation at residues 335, 338, 342 and 347 was analyzed by western blot. B) In vitro ubiquitination of NRF2 or pNRF2 by the βTrCP complex. NRF2 and pNRF2 (20 ng) were incubated at 25° C. for 1 h with purified ubiquitin, E1/cdc34b, βTrCP/Skp1 and Cull/Rbx1 as indicated in the presence or absence of PHAR […] or vehicle (DMSO). Polyubiquitinated NRF2 was detected by western blot with anti-ubiquitin antibody. […] E), densitometric analysis of NRF2 protein levels of the representative immunoblot of (D), expressed as a ratio of NRF2/GAPDH. […] G), densitometric analysis of NRF2 and HO1 protein levels of the representative immunoblots of (F), expressed as a ratio of NRF2 and HO1/GAPDH. […]

[1] = Preliminary safety study, 4 weeks IP treatment in control and STZ-treated mice; assay type: in vivo, mouse
Protocol: FIG. 10. […] A preliminary safety profile of PHAR treatment was assessed in […] control and streptozotocin (STZ) treated mice. These mice were subjected to a daily IP dose of […] of vehicle (VEH; Tween-80:PBS, 1:13), or PHAR for 5 days a week for 4 weeks. A) weight evolution during the weeks of treatment. (B-E) serum analysis of the levels of albumin (B), total protein (C) and liver transaminases, aspartate transaminase, AST (D), and alanine transaminase, ALT (E). The ranges of normal values are highlighted with a green dashed line. The number of individuals per group is reflected in the graphs.
Preliminary safety studies have been performed in 7-week-old control and streptozotocin (STZ)-treated mice. These mice were subjected to an I.P treatment of 50 mg/kg of vehicle (Tween-80: PBS, 1:13) or PHAR for 4 weeks with 5 weekly doses. […] On the other hand, serum levels of albumin, total protein and two transaminases (AST and ALT) were analyzed.

Which “toxicity (cell viability, MTT)” value (cell viability) does the source give for `O=C1[C@@H]2[C@H](Cc3c[nH]c4ccccc34)N[C@]3(C(=O)Nc4ccc(Cl)cc43)[C@@H]2C(=O)N1c1ccc2c(c1)OCCO2` [PHAR] here?
The value was “does not present toxicity at any of the doses used”.

What about the “HO-1 accumulation in sh β-TrCP1/2 cells compared with shCTRL” value (β-TrCP1 and β-TrCP2; PHAR 10 μM) of the same compound?
Its value is “considerably lower; also recorded: lower in cells lacking β-TrCP1/2”.

What about the “Hmox1 and Nqo1 mRNA induction in sh β-TrCP1/2 cells” value (β-TrCP1 and β-TrCP2; PHAR 10 μM) of the same compound?
The value was “induction generated by PHAR is lost”.

And the “NRF2 levels in shCTRL cells” value (β-TrCP1 and β-TrCP2; PHAR 10 μM, 2, 4, 8 h)?
Its value is “increase in NRF2 levels from 2 h to 8 h”.

What about the “NRF2 accumulation in sh β-TrCP1/2 cells compared with shCTRL” value (β-TrCP1 and β-TrCP2; silencing about 50%, PHAR 10 μM) of the same compound?
The value was “considerably lower; also recorded: significantly lower compared with shCTRL cells”.

And the “body weight during treatment” value ([1]; control and STZ-treated mice, I.P 50 mg/kg, 5 weekly doses, 4 weeks)?
The value was “did not lose weight”.

What about the “serum albumin, total protein, AST and ALT” value ([1]; control and STZ-treated mice, I.P 50 mg/kg, 5 weekly doses, after 4 weeks) of the same compound?
The value was “values within normal ranges”.

What about the “toxicity of chronic / prolonged administration” value ([1]; mice, daily IP 5 days a week for 4 weeks) of the same compound?
The value was “does not produce toxicity; also recorded: prolonged administration of PHAR is safe”.
